Entries after “also recorded” stand apart in the source; their conditions may differ.

This note sets out measurements from patent US20140349941A1, “AROMATIC-CATIONIC PEPTIDES AND USES OF SAME” (Cornell University, priority 2011, published 2014).

The nature of experiment [1]: Antioxidant ability: neutralizing reactive species, lipid peroxidation. It counts as biochemical.
The nature of experiment [2]: Animal models of ischemia-reperfusion injury, neurodegenerative diseases and metabolic syndrome. The experiment is classed as in vivo. The conditions noted are these: neurodegenerative diseases, metabolic syndrome.
The nature of experiment [3]: Fluorescence spectroscopy of peptide interaction with cardiolipin. Conditions: peptide 1 μM, CL 5-50 μg/ml. It counts as binding. From the text:
The peptides Dmt-D-Arg-(atn)Dap-Lys-NH2 (SS-19) and Dmt-D-Arg-Phe-Lys-Ald-NH2 (SS-37)cationic peptides carry net positive charge at neutral pH. They are expected to associate with anionic phospholipid cardiolipin based on electrostatic interaction. The interaction of small peptides with lipid membranes can been studied using fluorescence spectroscopy (Surewicz and Epand, 1984). […] Polarity-sensitive fluorescent probes were incorporated into the peptides and fluorescence spectroscopy was used to determine if SS-19, SS-37 and SS-36 interact with CL.
The peptide Dmt-D-Arg-Phe-(atn)Dap-NH2 (SS-19) contains anthraniloyl incorporated into diaminopropionic acid. Anthraniloyl derivatives fluoresce in the 410-420 nm range when excited at 320-330 nm (Hiratsuka T, 1983). The quantum yield of anthraniloyl derivatives is strongly dependent on the local environment, and can increase 5-fold going from water to 80% ethanol, together with a blue shift in the emission maxima (λ max) of <10 nm (Hiratsuka T, 1983). Fluorescence emission spectrum of SS-19 (1 μM) alone, and in the presence of increasing concentrations of CL (5 to 50 μg/ml), was monitored following excitation at 320 nm using Hitachi F-4500 fluorescence spectrophotometer.
The peptide Dmt-D-Arg-Phe-Lys-Ald-NH2 (SS-37) contains an additional amino acid, aladan (Ald), which has been reported to be particularly sensitive to the polarity of its environment and it has been used to probe the electrostatic character of proteins (Cohen et al., 2002). When excited at 350 nm, λmax shifts from 542 nm in water to 409 nm in heptane, accompanied by a significant increase in quantal yield (Cohen et al., 2001). Fluorescence emission spectrum of SS-37 (1 μM) alone, and in the presence of increasing concentrations of CL, was monitored following excitation at 350 nm. Addition of CL (5 to 50 μg/ml) led to a 3-fold increase in quantal yield of SS-37 as well as a clear blue shift in λmax, from 525 nm without CL to 500 nm with 50 μg/ml CL (FIG. 21B).
The peptide Dmt-D-Arg-Ald-Lys-NH2 (SS-36) contains Ald in place Phe^3. Fluorescence emission spectrum of SS-36 (1 μM) alone, and in the presence of increasing concentrations of CL, was monitored following excitation at 350 nm. SS-36 was the most sensitive to the addition of CL, with dramatic increase in quantal yield and blue shift observed with much lower added amounts of CL (1.25 to 5 μg/ml). The λmax shifted from 525 nm without CL to 500 nm with as little as 1.25 μg/ml CL, and quantal yield increased by more than 100-fold with the addition of 5 μg/ml of CL (FIG. 21C).

The test system of experiment [4] is isolated rat renal kidney mitochondria. The experiment in a line: Fluorescence quenching of peptide by mitochondria or mitoplasts. The experiment is classed as binding. The procedure:
(§1) Maximal fluorescence emission of SS-19 was monitored at 420 nm following excitation at 320 nm using Hitachi F-4500 fluorescence spectrophotometer.
(§2) The quenching by cytochrome c was not displaced by sequential additions of bovine serum albumin (FIG. 22C, A+arrows) (500 μg/ml).

The test system of another experiment is cytochrome c. Kind of experiment: Fluorescence quenching of peptide by cytochrome c. It counts as binding. The procedure:
as §1, §2
Fluorescence emission of SS-19 (10 μM) was monitored in real time (Ex/Em=320 nm/420 nm) using Hitachi F-4500 fluorescence spectrophotometer.

The target of experiment [5] is T1, cytochrome c-CL complex (Homo sapiens, UniProt P99999). Kind of experiment: Fluorescence spectroscopy of peptide with cytochrome c in the presence of CL. The experiment is classed as binding. Conditions: peptide 10 μM, CL 50 μg/ml. The procedure:
Fluorescence emission of SS-19 (10 μM) was monitored in real time (Ex/Em=320 nm/420 nm) using Hitachi F-4500 fluorescence spectrophotometer. […] CL may potentiate the interaction between SS-19 and cytochrome c by serving as an anionic platform for the two cationic molecules.
The quenching by cytochrome c was not displaced by sequential additions of bovine serum albumin (500 μg/ml) (FIG. 23C, A+arrows).
SS-36 also contains the polarity-sensitive fluorescent amino acid aladan.

For experiment [6], the target named is heme environment of cytochrome c (with CL) (Homo sapiens, UniProt P99999). Kind of experiment: Soret CD spectrum of cyt C in the presence of CL. It counts as binding. Conditions: cyt C 10 μM; CL 30 μg/ml; peptide 10 μM; 20 mM HEPES pH 7.5, 25° C.; FIG. 24. How it is done: Circular dichroism (CD) was carried out to examine the effects of the peptides on protecting the heme environment of cyt C from the acyl chain of CL. For heme proteins, the Soret CD spectrum is strictly correlated with the heme pocket conformation. In particular, the negative 416-420 nm Cotton effect is considered diagnostic of Fe(III)-Met80 coordination in native cyt C (Santucci and Ascoli, 1997). […] CD spectra were obtained using AVIV CD Spectrometer Model 410.
Changes in the Soret CD spectrum of cyt C (10 μM) were recorded in the absence (dotted line) and presence (dashed line) of 30 μg/ml CL, plus addition of different peptides (10 μM) (solid line) (FIG. 24). CD measurements were carried out using 20 mM HEPES, pH 7.5, at 25° C. and expressed as molar ellipticity (θ) (m Deg).

Experiment [7] addresses T1, cytochrome c-CL complex. The experiment in a line: Cytochrome c/CL peroxidase activity (amplex red). It counts as biochemical. The conditions noted are these: figure legend FIG. 29A-C; comparison at a fixed concentration of 10 μM (FIG. 29C). From the text:
The six coordination of the heme in cytochrome c prevents direct interaction of H2O2 with the catalytic metal site, and native cytochrome c in solution is a poor peroxidase. Upon interaction with CL, cytochrome c undergoes a structural change with rupture of the Fe-Met80 coordination. […] The mechanism of action of cytochrome c peroxidase is similar to that of other peroxidases, such as horse radish peroxidase (HRP). Thus it is possible to use the amplex red-HRP reaction to investigate cytochrome c peroxidase activity. In the presence of peroxidase, amplex red (AR) reacts with H2O2 to form the red-fluorescent oxidation product, resorufin (Ex/Em=571/585).
Cytochrome c (2 μM) was mixed with CL (25 μg/ml) and 10 μM H2O2 in 20 mM HEPES, pH 7.4. Amplex red (50 μM) was then added and fluorescence emission monitored in real time using Hitachi F4500 fluorescence spectrophotometer. Addition of amplex red elicited rapid increase in fluorescence signal due to resorufin formation, providing direct evidence for peroxidase activity of cytochrome c/CL complex (FIG. 29A).

T1 sequence (P99999 2-105 limits assumed, species assumed, one chain of several): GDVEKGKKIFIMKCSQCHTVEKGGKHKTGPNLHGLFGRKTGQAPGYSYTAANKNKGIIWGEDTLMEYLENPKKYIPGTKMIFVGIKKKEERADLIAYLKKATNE
heme environment of cytochrome c (with CL), sequence (P99999 2-105 limits assumed, species assumed): as the sequence (P99999 2-105 limits assumed, species assumed, one chain of several) above

D-Arg-2′6′-Dmt-Tyr-Lys-Phe-NH2: in experiment [1], the lipid peroxidation result is on record as “inhibit lipid peroxidation”; the neutralizing reactive species result was “can neutralize H2O2, hydroxyl radical, and peroxynitrite”. Also, in experiment [2], the “efficacy in animal models” value is on record as “remarkable efficacy”.

As to Dmt-D-Arg-Phe-(atn)Dap-NH2 [SS-19], the “increase in quantal yield of peptide fluorescence” value in experiment [3] was 2 fold. The “shift in λmax on addition of CL” value in experiment [3] (excitation 320 nm) is recorded as “no significant shift in λmax”. The “quenching of peptide fluorescence by cytochrome c-depleted mitoplasts” value in experiment [4] (mitoplasts 0.4 mg, FIG. 22B) was “significantly reduced”. Besides, the “peptide fluorescence on addition of mitochondria” value in experiment [4] (peptide 10 μM, sequential addition of 0.2 mg mitochondria, FIG. 22A) is “quenched”. For the same substance, the “displacement of cytochrome c quenching by bovine serum albumin” value in the experiment on cytochrome c (BSA 500 μg/ml, FIG. 22C) is given as “not displaced”. In addition, in the experiment on cytochrome c (FIG. 22D), the “dependence of interaction on amount of cytochrome c” value was “linearly dependent on the amount of cytochrome c added”. Also, the “peptide fluorescence on addition of cytochrome c” value with cytochrome c (peptide 10 μM, 2 μM cytochrome c, no CL) is recorded as “similarly quenched; also recorded: immediate quenching of the fluorescence signal”. Also, on cytochrome c-CL complex [5] (2 μM cytochrome c), the “peptide fluorescence on addition of cytochrome c in the presence of CL” value is listed as “larger extent of quenching of SS-19 fluorescence”. Further, the “peptide fluorescence on addition of CL” value on cytochrome c-CL complex [5] (FIG. 23B) was “increase in SS-19 fluorescence”. Also, the “disappearance of the negative Cotton effect caused by CL (heme environment of cytochrome c)” value in experiment [6] is reported as “Protect the Heme Environment of Cytochrome C from the Acyl Chain of CL”. Further, at cytochrome c-CL complex [7], the “peroxidase activity in cytochrome c/CL complex” value is given as “preventing peroxidase activity in cytochrome c/CL complex”.
